Source: PMC4774911, “Biochemical Screening of Five Protein Kinases from Plasmodium falciparum against 14,000 Cell-Active Compounds” (PLoS ONE, 2016)
Values joined by “and” are separate entries in the source; they are usually repeats but may differ in a detail not shown here. Equal entries are not always repeated.

Experiments:
Test in all cases: biochemical
Design in all cases: endogenous in cells; host or cells: K562 cell extract; species or system K562 (extract); replicate k of n = 2 (each experiment ID is one independent experiment; two experiment IDs per compound)
Settings in all cases: read-out: KDapp
PIP4K2A = biological target: T1, PIP4K2A (Homo sapiens, UniProt P48426)
T1 sequence (P48426 1-406): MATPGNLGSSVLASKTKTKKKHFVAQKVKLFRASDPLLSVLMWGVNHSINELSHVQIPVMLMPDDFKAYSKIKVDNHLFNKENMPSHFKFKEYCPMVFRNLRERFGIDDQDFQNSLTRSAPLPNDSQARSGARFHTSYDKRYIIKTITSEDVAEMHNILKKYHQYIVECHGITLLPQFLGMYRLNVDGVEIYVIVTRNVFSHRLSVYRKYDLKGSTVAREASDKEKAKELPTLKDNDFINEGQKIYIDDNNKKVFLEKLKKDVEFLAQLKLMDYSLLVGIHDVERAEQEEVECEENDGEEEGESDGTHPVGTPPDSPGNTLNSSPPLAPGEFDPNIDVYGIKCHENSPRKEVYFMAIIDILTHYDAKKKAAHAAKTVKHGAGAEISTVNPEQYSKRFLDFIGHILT

PIP4K2B = biological target: T2, PIP4K2B (Homo sapiens, UniProt P78356)
T2 sequence (P78356 1-416): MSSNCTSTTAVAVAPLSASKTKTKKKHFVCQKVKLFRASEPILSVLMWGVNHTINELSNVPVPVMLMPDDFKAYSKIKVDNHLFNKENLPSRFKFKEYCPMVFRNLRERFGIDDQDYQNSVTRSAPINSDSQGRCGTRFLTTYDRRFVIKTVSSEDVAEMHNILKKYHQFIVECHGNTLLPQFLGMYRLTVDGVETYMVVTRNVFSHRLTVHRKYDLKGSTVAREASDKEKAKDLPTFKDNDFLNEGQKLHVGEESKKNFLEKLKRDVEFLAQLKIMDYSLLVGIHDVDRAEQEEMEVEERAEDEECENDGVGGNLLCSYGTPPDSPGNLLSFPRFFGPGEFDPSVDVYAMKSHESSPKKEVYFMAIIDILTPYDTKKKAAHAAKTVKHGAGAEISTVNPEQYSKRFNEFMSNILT

NEK1 = biological target: T3, NEK1 (Homo sapiens, UniProt Q96PY6)
T3 sequence (Q96PY6 1-1258): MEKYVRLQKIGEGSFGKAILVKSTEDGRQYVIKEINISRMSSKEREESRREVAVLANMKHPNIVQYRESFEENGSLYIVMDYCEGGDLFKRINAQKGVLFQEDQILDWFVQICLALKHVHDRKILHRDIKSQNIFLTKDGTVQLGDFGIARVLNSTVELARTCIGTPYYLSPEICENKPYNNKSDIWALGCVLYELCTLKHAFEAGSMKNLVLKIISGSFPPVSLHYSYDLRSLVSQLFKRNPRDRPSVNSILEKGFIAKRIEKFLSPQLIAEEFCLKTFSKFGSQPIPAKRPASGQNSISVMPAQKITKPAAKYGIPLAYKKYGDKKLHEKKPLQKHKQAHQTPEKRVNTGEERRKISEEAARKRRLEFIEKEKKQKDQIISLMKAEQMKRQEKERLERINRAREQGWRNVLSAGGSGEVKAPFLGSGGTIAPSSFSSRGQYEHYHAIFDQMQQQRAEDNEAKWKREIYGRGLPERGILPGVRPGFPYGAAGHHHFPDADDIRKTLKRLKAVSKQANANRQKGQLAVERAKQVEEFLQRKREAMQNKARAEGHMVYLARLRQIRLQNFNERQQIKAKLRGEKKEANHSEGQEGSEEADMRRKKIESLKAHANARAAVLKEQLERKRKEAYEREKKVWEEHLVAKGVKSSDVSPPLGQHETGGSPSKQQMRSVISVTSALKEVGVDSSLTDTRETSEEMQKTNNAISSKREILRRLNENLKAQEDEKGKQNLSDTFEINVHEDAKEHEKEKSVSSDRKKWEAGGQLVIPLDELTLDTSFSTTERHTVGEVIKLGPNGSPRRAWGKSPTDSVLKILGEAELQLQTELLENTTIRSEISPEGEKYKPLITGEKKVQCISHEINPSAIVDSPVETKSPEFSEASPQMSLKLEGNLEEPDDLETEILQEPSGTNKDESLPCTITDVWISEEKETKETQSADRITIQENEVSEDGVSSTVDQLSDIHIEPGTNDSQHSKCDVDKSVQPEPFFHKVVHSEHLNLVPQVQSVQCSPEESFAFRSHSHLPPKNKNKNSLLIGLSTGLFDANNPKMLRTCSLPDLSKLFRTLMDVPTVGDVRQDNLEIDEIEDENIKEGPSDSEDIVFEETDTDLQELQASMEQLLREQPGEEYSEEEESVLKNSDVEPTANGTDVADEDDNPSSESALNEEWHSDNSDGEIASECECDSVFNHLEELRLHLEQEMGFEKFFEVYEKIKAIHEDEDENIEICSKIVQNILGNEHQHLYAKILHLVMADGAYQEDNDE

| Compound | Kd (PIP4K2A) | Kd (PIP4K2B) | Kd (NEK1) |
| --- | --- | --- | --- |
| CN1CCN(c2ccc(Nc3ncc(C#N)c(Nc4ccccc4C(N)=O)n3)cc2)CC1.Cl [TCMDC-134116] | 775 nM and 987 nM | 1130 nM and 705 nM | 404 nM and 333 nM |
| CN(C)CC(O)COc1ccc(Nc2ncc([N+](=O)[O-])c(Nc3ccccc3O)n2)cc1.O=C(O)C(F)(F)F (stereo not drawn) [TCMDC-141399] | 846 nM and 669 nM | 684 nM and 987 nM | 4540 nM |
